Test results from patent publication US20240252582A1, “METHODS FOR TREATING AMBLYOPIA” (City University of Hong Kong, priority 2023, published 2024).
Non-standard residues stand in square brackets, D forms with d. Phe(3-Br) = N[C@@H](Cc1cccc(Br)c1)C(=O)O; Nle = CCCC[C@H](N)C(=O)O

What was measured:
[1] = tested on: juvenile C57BL/6 mice model of amblyopia (LTMD); assay: In-vivo electrophysiology (spike recording in V1), contralateral bias index after long-term monocular deprivation
Procedure: The mice are anesthetized through the application of a K-X combination during the surgical preparation. The body temperatures of the mice are maintained at 37° C. by use of a homeostatically controlled heating pad during the surgery. Following the induction of anesthesia, each mouse is mounted on a stereotaxic instrument (RWD Life Science, Shenzhen, China) and an incision is made along the midline of the head. The stereotaxic instrument is adjusted to place the bregma and lambda points of the skull on a flat skull surface (anteroposterior: −3.2 mm to −4.0 mm; mediolateral: 3.0-3.8 mm, relative to bregma). A piece of the scalp over the V1 is removed to expose the cortex, and a bone screw is fixed in the frontal bone as the reference electrode. The exposed cortical surface is then covered with extracellular saline (in mM: 125 NaCl, 5 KCl, 10 glucose, 10 4-(2-hydroxyethyl)-1-piperazineethanesulphonicacid [HEPES], and 2 CaCl2; pH adjusted to 7.4) to prevent drying of the surface. The electrode is lowered into the brain to an appropriate depth (V1≤1 mm) and is allowed to settle for 30 min before recording is begun. In each mouse, 3-4 separate penetrations are spaced evenly at least 200 μm apart across the binocular region of V1. The eyes are kept moist with ophthalmic lubricant ointment until recording to prevent drying while enabling clear optical transmission. At the end of the recording, the mice are euthanized by injection of an overdose of Dorminal (300 mg/kg).
Visual stimuli of sinusoidal drifting gratings with increasing orientation angles(0-330°) and 0.4 cpd are presented in random order to alternate eyes. The spike recordings are performed with the use of a polyimide-coated platinum/iridium (70:30) ribbon microelectrode array (Clunbury Scientific LLC, USA). The tip resistances are 30-50 kΩ. The A-M Systems 3600 (A-M Systems, USA) and CED Micro 1401-3 (Cambridge Electronic Design, UK) instruments are used as the amplifier and data acquisition system, respectively. The signals are sampled at 25 kHz and bandpass-filtered at 300 Hz-3 KHz for spike, amplified, and fed to spike2 software (Cambridge Electronic Design, UK). Offline analysis is performed using MATLAB (R2020b, Math Works, USA). To begin, the raw data are transformed into a MATLAB-compatible format. Spike sorting is used to distinguish various units collected at the same time in the spike data. Wave clus, a MATLAB tool, is used to categorize the units based on the characteristics of their waveforms.
The neuronal response in the Visual cortex (V1) is recorded extracellularly, while the same visual stimulus with varied orientation is presented to either of the eyes alternatively, and the relative strength of the response is determined.
To quantify the deprivation effect, the inventors calculate the contralateral bias index (CBI) from spikes (response from the single neuron) using the following formula:
where NT is the total number of units and NX is the number of units with OD scores equal to x (x=1, 2, 3, 5, 6, 7). For the sum of the number of cells in each category is used to calculate the CBI for each animal.
FIGS. 1A and 1B, show the timeline of the experimental setup, i.e. LTMD, surgery, dosing, and in-vivo electrophysiology used in the second and third experiments. In the second experiments, in juvenile after LTMD, saline or CCK8s (Cholecystokinin octapeptide (Tocris Bioscience, UK): 1 ul each day (10 ng/ul), Cholecystokinin octapeptide (Tocris Bioscience, UK)) is infused (treatment) for 15 days (from P42 to P57) in V1. […] The ipsilateral eye is dominated. Contrarily, in the group treated with CCK8s (infusion in V1), the ocular dominance shifts from the ipsilateral eye towards the contralateral eye (CBI=0.65, 12 animals) (FIG. 1G).
In juvenile after LTMD, 3r1 (a type of CCKBR agonist, Guangzhou Institute of Biomedicine and Health, affiliated with the Chinese Academy of Sciences, Guangzhou, China) (4.18 uM) is administered intraperitoneally (i.p). […]

[2] = tested on: juvenile C57BL/6 mice model of amblyopia (LTMD); assay: Visual water behavioral test of visual acuity after long-term monocular deprivation; type: in vivo; details: for Visual acuity: Long-term MD (P21-P42) mice, WT adult 0.44; for Performance (percentage accuracy) during training after treatment / Visual acuity, Mean±SEM (FIG. 2G, post hoc analysis) / Cutoff (70% accuracy) achieved during testing: juvenile LTMD mice; for Performance (percentage accuracy) during training after treatment: cutoff 70% accuracy (FIG. 2F); for Visual acuity, Mean±SEM (FIG. 2G, post hoc analysis): WT 0.44±0.02 (P>0.05)
Source text: Amblyopia patients usually have poor visual acuity. It is believed that the method according to the invention can reverse the lost visual acuity in amblyopia patients. FIGS. 2A-2G illustrate the assessment of visual acuity using visual water maze. Dotted line represents the 70% accuracy as cutoff. As shown in FIGS. 2C-2E, WT adult (P60) mice with no MD show cutoff at cpd 0.45 achieved during testing by all the animals (12 animals). After LTMD in juvenile followed by saline (infusion)/CCK8s treatment, the mice show cutoff at cpd 0.30 and 0.52 respectively achieved during testing by all the animals (11 animals/12 animals respectively). After LTMD in juvenile followed by saline (i.p)/CCKBR agonist (3r1) treatment, the mice show cutoff at cpd 0.33 and 0.46 respectively achieved during testing by all the animals (11 animals/15 animals respectively). […] The performance of the animals during training in WT adult (P60) with no MD, before and after remained unchanged. After LTMD in juvenile, the performance of animals during training before and after saline (infusion) treatment remained unchanged and the performance of animals during training before and after CCK8s treatment show the difference. […] After LTMD in juvenile, the performance of animals during training before and after saline (i.p) treatment remained unchanged and the performance of animals during training before and after CCK-agonist (3r1) treatment show the difference. […] A significant difference is observed between saline (infusion) and CCK8s treated animals (P<0.001) and in between saline (i.p) and CCKBR agonist (3r1) (P<0.001). No significant difference in visual acuity observed in adult (P60), no MD and juvenile LTMD following CCK8s and CCKBR agonist (3r1) treated animals (P>0.05). Error bars in FIG. 2G indicate the standard error of the mean (SEM).
Visual water behavioral test is performed to show visual acuity improvement following long-term monocular deprivation after administration of CCK8s and CCKBR agonist (3r1). Each animal learns quickly to associate swimming to the escape platform placed below the screen displaying grating stimuli during pre-training phase and post-training phase. Animals of all groups learn serendipitously during training to swim to the end of the divider, and then look at each screen several times before making their choice.
FIGS. 2A and 2B show the behavioural experimental design of this example: (CCK8s) infusion in V1 and CCKBR agonist (3r1)(i.p). The testing criterion in the training phase (from P42 to P47) is reached for all mice within four sessions (32 trials). Average performance above 70% accuracy is maintained for all mice of different groups (FIG. 2F). The visual acuity of the groups is illustrated in FIGS. 2C-2E.

Row | Substance | Contralateral bias index (CBI) ([1]; juvenile LTMD (P21-P42) mice, infusion in V1, 1 ul each day (10 ng/ul), 15 days (P42-P57), saline CBI=0.33) | Histogram of V1 cells, eye response bias ([1]; juvenile LTMD mice, infusion 15 days (FIG. 1G)) | Visual acuity ([2]; infusion, saline (infusion) 0.3) [c/d] | Performance (percentage accuracy) during training after treatment [2] | Visual acuity, Mean±SEM (FIG. 2G, post hoc analysis) ([2]; infusion, saline 0.309±0.01 (P<0.001)) [c/d] | Cutoff (70% accuracy) achieved during testing ([2]; infusion, saline (infusion) 0.30, WT 0.45 (FIG. 2D)) [cpd] | Contralateral bias index (CBI) ([1]; juvenile LTMD mice, i.p., 4 doses on alternate days for 7 days, 0.0122890 mg/kg per dose, saline CBI=0.31) | Contralateral bias index (CBI) ([1]; juvenile LTMD mice, i.p., 8 doses on alternate days for 14 days, 0.0122890 mg/kg per dose, saline CBI=0.31) | Histogram of V1 cells, eye response bias ([1]; juvenile LTMD mice, treatment for fourteen days (FIG. 1J)) | Histogram of V1 cells, eye response bias ([1]; juvenile LTMD mice, treatment for seven days (FIG. 1I)) | Visual acuity ([2]; i.p., saline (i.p) 0.33) [c/d] | Cutoff (70% accuracy) achieved during testing ([2]; i.p., saline (i.p) 0.33, WT 0.45 (FIG. 2E)) [cpd] | Visual acuity, Mean±SEM (FIG. 2G, post hoc analysis) ([2]; i.p., saline (i.p) 0.33±0.01 (P<0.001)) [c/d]
1 | Cholecystokinin octapeptide [CCK8s, reference compound] | 0.65 | strong contralateral eye bias | 0.5 | reaches beyond the cutoff | 0.5±0.01 | 0.52 | – | – | – | – | – | – | –
2 | Ac-W[Nle]D[Phe(3-Br)]-NH2 [3r1] | – | – | – | reaches beyond the cutoff | – | – | 0.66 | 0.68 | strong contralateral eye bias | strong contralateral eye bias | 0.46 | 0.46 | 0.46±0.02
